Data published in US20240101572A1, “DIHYDROOXADIAZINONE COMPOUND AND PHARMACEUTICAL USE THEREOF” (Japan Tobacco Inc., priority 2022, published 2024).
Read-outs that look alike come from different tables or passages of the source.

Legend:
full-length human PLD1 = full-length human PLD1 (Homo sapiens (Human), UniProt Q13393); test: Evaluation of human PLD1 enzyme inhibitory activity (Amplex Red / choline oxidase fluorescence); format: biochemical
In short: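 N-terminally FLAG-tagged full-length human PLD1 (1-1036), expressed in Expi293F and FLAG-purified, incubated with compound (5% DMSO final) and 1,2-diheptanoyl-sn-glycero-3-phosphocholine for 60 min at room temperature in HEPES pH 7.5 buffer. Released choline detected by Amplex Red/choline oxidase/HRP fluorescence.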

full-length human PLD2 = full-length human PLD2 (Homo sapiens (Human), UniProt O14939); test: Evaluation of human PLD2 enzyme inhibitory activity (Amplex Red / choline oxidase fluorescence); format: biochemical
In short: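 Enzyme was N-terminal FLAG-tagged full-length human PLD2 (1-933), expressed in Expi293F cells and anti-FLAG purified. Compound (5% DMSO final) was incubated with enzyme (6 nmol/L solution) and 1,2-diheptanoyl-PC (6 mmol/L solution) in HEPES pH 7.5, KCl, EGTA, MgCl2, NP-40, BSA buffer for 60 min at room temperature. Choline was detected with Amplex Red/choline oxidase/HRP.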

[1] = full-length human PLD1 enzyme, read-out: PLD1 IC50
[2] = full-length human PLD2 enzyme, read-out: PLD2 IC50
[3] = column 1 of continuation tables 2-12 to 2-14, read-out: human PLD1 enzyme inhibitory activity IC50
[4] = column 2 of continuation tables 2-12 to 2-14, read-out: human PLD2 enzyme inhibitory activity IC50

Sequence of full-length human PLD2 (O14939 whole entry): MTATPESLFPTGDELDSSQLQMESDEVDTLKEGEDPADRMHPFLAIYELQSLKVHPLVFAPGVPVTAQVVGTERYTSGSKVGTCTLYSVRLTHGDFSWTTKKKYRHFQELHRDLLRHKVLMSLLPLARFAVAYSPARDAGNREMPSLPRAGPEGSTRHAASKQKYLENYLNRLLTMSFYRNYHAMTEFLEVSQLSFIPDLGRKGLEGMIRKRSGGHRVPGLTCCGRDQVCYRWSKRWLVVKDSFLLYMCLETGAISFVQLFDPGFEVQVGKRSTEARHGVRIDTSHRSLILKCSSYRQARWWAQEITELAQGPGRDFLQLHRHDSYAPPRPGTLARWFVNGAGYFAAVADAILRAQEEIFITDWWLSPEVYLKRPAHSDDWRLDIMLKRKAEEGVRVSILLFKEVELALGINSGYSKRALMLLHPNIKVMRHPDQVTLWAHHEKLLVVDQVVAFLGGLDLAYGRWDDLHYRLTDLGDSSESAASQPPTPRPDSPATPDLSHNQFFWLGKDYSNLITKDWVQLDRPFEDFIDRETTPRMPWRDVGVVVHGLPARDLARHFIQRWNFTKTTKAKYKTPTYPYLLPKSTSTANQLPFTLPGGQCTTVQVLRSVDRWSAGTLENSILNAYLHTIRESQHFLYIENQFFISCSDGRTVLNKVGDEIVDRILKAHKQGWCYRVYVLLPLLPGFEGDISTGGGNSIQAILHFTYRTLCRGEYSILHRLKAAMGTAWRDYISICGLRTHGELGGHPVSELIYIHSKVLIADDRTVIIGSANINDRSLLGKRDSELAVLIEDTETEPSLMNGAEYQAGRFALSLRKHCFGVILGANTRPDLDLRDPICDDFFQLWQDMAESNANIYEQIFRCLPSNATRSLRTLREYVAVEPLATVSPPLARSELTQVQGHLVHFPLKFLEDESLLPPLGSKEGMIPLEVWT
Sequence of full-length human PLD1 (Q13393 other isoform, or with tags, fused parts or gaps): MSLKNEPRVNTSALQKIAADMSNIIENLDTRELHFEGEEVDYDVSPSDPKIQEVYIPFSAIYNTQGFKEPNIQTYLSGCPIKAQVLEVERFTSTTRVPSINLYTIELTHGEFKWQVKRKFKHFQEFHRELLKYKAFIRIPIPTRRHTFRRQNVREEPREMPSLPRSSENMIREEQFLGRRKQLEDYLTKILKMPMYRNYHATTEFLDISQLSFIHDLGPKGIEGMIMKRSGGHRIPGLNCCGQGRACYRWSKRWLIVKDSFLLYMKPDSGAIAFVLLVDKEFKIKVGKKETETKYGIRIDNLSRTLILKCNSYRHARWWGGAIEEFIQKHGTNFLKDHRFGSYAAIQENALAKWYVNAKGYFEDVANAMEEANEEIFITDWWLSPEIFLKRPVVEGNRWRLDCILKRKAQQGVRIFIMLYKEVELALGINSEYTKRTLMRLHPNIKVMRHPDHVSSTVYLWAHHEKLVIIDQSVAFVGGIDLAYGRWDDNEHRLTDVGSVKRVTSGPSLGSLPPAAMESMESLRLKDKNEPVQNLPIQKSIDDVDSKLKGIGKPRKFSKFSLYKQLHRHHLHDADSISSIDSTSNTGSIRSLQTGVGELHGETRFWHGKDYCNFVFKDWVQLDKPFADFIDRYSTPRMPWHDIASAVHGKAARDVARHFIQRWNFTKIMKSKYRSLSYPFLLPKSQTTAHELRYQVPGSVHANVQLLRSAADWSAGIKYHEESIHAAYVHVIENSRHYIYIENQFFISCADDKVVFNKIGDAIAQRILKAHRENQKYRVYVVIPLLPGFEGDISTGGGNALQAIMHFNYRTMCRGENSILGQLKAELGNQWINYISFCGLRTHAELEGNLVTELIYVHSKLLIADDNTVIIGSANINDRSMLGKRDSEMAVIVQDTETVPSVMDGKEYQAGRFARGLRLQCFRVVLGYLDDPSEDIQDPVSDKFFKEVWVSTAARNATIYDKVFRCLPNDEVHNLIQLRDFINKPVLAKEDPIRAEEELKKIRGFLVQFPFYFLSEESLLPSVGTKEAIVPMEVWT

| Structure (SMILES) | IC50 (full-length human PLD1; [1]) | IC50 (full-length human PLD2; [2]) | IC50 (full-length human PLD1; [3]) | IC50 (full-length human PLD2; [4]) |
| --- | --- | --- | --- | --- |
| Cc1cc(C(=O)N[C@@H](C)[C@H](C)N2CCC3(CC2)OC(=O)NN=C3c2ccc(F)cc2Br)[nH]n1 [Example 288] | 26 nM | < 10 nM | – | – |
| C[C@@H](C[C@H]1CC[C@]2(CC1)OC(=O)NN=C2c1ccc(S(C)(=O)=O)cc1Br)NC(=O)c1cc2cc(F)ccc2[nH]1 [Example 32] | 32 nM | < 10 nM | – | – |
| C[C@@H](C[C@H]1CC[C@]2(CC1)OC(=O)NN=C2c1ccc(OC(F)(F)F)cc1Br)NC(=O)c1cc2ccccc2o1 [Example 87] | 39 nM | < 10 nM | – | – |
| CNC(=O)C(=O)N[C@@H](C)C[C@]1(C#N)CC[C@@]2(CC1)OC(=O)NN=C2c1ccc(OC(F)F)cc1Br [Example 2-067] | 15 nM | < 10 nM | – | – |
| CNC(=O)C(=O)N[C@@H](C)C[C@H]1CC[C@]2(CC1)OC(=O)NN=C2c1cccc(Br)c1 [Example 24] | 41 nM | 31 nM | – | – |
| C[C@@H](C[C@]1(C#N)CC[C@@]2(CC1)OC(=O)NN=C2c1cc(C(F)(F)F)ccc1Br)NC(=O)c1cn(C)cn1 [Example 2-079] | 11 nM | 10 nM | – | – |
| CNC(=O)C(=O)N[C@@H](C)C[C@H]1CC[C@]2(CC1)OC(=O)NN=C2c1ccccc1SC(F)(F)F [Example 2-019] | 12 nM | < 10 nM | – | – |
| CNC(=O)C(=O)N[C@@H](C)C[C@H]1CC[C@]2(CC1)OC(=O)NN=C2c1cccc2c1OC(F)(F)O2 [Example 118] | 50 nM | 73 nM | – | – |
| CNC(=O)C(=O)N[C@@H](C)CN1CC[C@]2(C[C@@H]1C)OC(=O)NN=C2c1ccc(C#N)cc1Cl [Example 280] | 147 nM | 316 nM | – | – |
| CNC(=O)C(=O)N[C@@H](C)CN1C[C@H]2CC[C@@H](C1)[C@@]21OC(=O)NN=C1c1ccc(F)cc1Cl [Example 196] | 27 nM | < 10 nM | – | – |
| Cc1ncccc1C1=NNC(=O)O[C@]12CC[C@@H](C[C@H](C)NC(=O)c1cc(Cl)no1)CC2 [Example 103] | 170 nM | 379 nM | – | – |
| Cc1cc(C(=O)N[C@@H](C)CN2CCC3(CC2)OC(=O)NN=C3c2ccc(Cl)cc2C)[nH]n1 [Example 217] | 17 nM | < 10 nM | – | – |
| CNC(=O)C(=O)NCC[C@H]1CC[C@]2(CC1)OC(=O)NN=C2c1ccc(F)cc1Br [Example 47] | 119 nM | < 10 nM | – | – |
| C[C@@H](C[C@H]1CC[C@]2(CC1)OC(=O)NN=C2c1ccc(S(C)(=O)=O)cc1Cl)NC(=O)c1cc(Cl)no1 [Example 52] | 21 nM | < 10 nM | – | – |
| [2H]C([2H])([2H])NC(=O)C(=O)N[C@@H](C)C[C@]1(C#N)CC[C@@]2(CC1)OC(=O)NN=C2c1ccccc1Br [Example 2-164] | – | – | < 10 nM | < 10 nM |
| CNC(=O)C(=O)N[C@@H](C)CN1CCC2(CC1)OC(=O)NN=C2c1cc(C#N)ccc1Br [Example 300] | 38 nM | < 10 nM | – | – |
| Cc1cc(C(=O)N[C@@H](C)C[C@H]2CC[C@]3(CC2)OC(=O)NN=C3c2ccc(F)cc2Cl)[nH]n1 [Example 45] | 27 nM | 23 nM | – | – |
| CNC(=O)C(=O)N[C@@H](C)C[C@]1(C#N)CC[C@@]2(CC1)OC(=O)NN=C2c1cccc(C(F)(F)F)c1Br [Example 2-076] | 11 nM | < 10 nM | – | – |
| CNC(=O)C(=O)N[C@@H](C)C[C@H]1CC[C@]2(CC1)OC(=O)NN=C2c1cc(F)ccc1Br [Example 157] | < 10 nM | < 10 nM | – | – |
| C[C@@H](C[C@H]1CC[C@]2(CC1)OC(=O)NN=C2c1ccc(S(C)(=O)=O)cc1Cl)NC(=O)c1cc2cc(F)ccc2o1 [Example 117] | 21 nM | 18 nM | – | – |
| CNC(=O)C(=O)N[C@@H](C)C[C@H]1CC[C@]2(CC1)OC(=O)NN=C2c1ccc(OC(F)(F)F)cc1Br [Example 80] | < 10 nM | < 10 nM | – | – |
| CC(C)=CC(=O)N[C@@H](C)CN1CCC2(CC1)OC(=O)NN=C2c1cc(C#N)ccc1Br [Example 2-022] | 738 nM | 388 nM | – | – |
| CNC(=O)C(=O)N[C@@H](C)C[C@H]1CC[C@]2(CC1)OC(=O)NN=C2c1ccc(C#N)cc1Cl [Example 175] | 21 nM | 15 nM | – | – |
| [2H]C([2H])([2H])NC(=O)C(=O)N[C@@H](C)C[C@]1(OC)CC[C@@]2(CC1)OC(=O)NN=C2c1ccc(F)cc1Br [Example 2-135] | – | – | 20 nM | < 10 nM |
| C[C@@H](C[C@H]1CC[C@]2(CC1)OC(=O)NN=C2c1ccc(C(C)(C)O)cc1Br)NC(=O)c1cc(Cl)no1 [Example 97] | < 10 nM | < 10 nM | – | – |
| C[C@@H](CN1CCC2(CC1)OC(=O)NN=C2c1cc(C#N)ccc1Cl)NC(=O)[C@H](O)C(F)(F)F [Example 2-009] | 2150 nM | 1040 nM | – | – |

| Structure (SMILES) | IC50 (full-length human PLD1; [1]) | IC50 (full-length human PLD2; [2]) | IC50 (full-length human PLD1; [3]) | IC50 (full-length human PLD2; [4]) |
| --- | --- | --- | --- | --- |
| C[C@@H](C[C@H]1CC[C@]2(CC1)OC(=O)NN=C2c1cnc(C2CC2)cc1Cl)NC(=O)N1CCn2nccc2C1 [Example 277] | 17 nM | < 10 nM | – | – |
| CNC(=O)C(=O)N[C@@H](C)CN1CCC2(CC1)OC(=O)NN=C2c1c(F)cccc1Br [Example 2-018] | 22 nM | < 10 nM | – | – |
| CNC(=O)C(=O)N[C@@H](C)C[C@H]1CC[C@]2(CC1)OC(=O)NN=C2c1ccc(C)cc1C [Example 145] | 17 nM | < 10 nM | – | – |
| CC(C)C(=O)N[C@@H](C)C[C@H]1CC[C@]2(CC1)OC(=O)NN=C2c1ccc(F)cc1Br [Example 20] | 1650 nM | 3770 nM | – | – |
| C[C@@H](C[C@H]1CC[C@]2(CC1)OC(=O)NN=C2c1ccc(F)cc1)NC(=O)c1cc2cc(F)ccc2[nH]1 [Example 4] | 36 nM | 11 nM | – | – |
| CNC(=O)C(=O)N[C@@H](C)CN1CCC2(CC1)OC(=O)NN=C2c1cn(C)nc1I [Example 2-043] | 33 nM | 152 nM | – | – |
| Cc1cc(C(=O)N[C@@H](C)[C@@H](C)N2CCC3(CC2)OC(=O)NN=C3c2ccc(F)cc2Br)[nH]n1 [Example 290] | 122 nM | 46 nM | – | – |
| C[C@@H](C[C@H]1CC[C@]2(CC1)OC(=O)NN=C2c1ccc(F)cc1Br)NC(=O)c1cnn(C)c1 [Example 219] | < 10 nM | < 10 nM | – | – |
| CNC(=O)C(=O)N[C@H](C)CN1CCC2(CC1)OC(=O)NN=C2c1ccc(F)cc1Br [Example 2-011] | 2110 nM | 2940 nM | – | – |
| Cc1cc(C(=O)N[C@@H](C)CN2CCC3(CC2)OC(=O)NN=C3c2ccc(S(C)(=O)=O)cc2Cl)[nH]n1 [Example 128] | 186 nM | 60 nM | – | – |
| CNC(=O)C(=O)N[C@@H](C)C[C@H]1CC[C@]2(CC1)OC(=O)NN=C2c1cc(C(=O)NC)ccc1Br [Example 2-035] | 21 nM | < 10 nM | – | – |
| Cc1cc(C(=O)N[C@@H](C)C[C@H]2CC[C@]3(CC2)OC(=O)NN=C3c2cnc(N3CCC(F)(F)C3)cc2Cl)[nH]n1 [Example 224] | 13 nM | < 10 nM | – | – |
| CNC(=O)C(=O)N[C@@H](C)C[C@H]1CC[C@]2(CC1)OC(=O)NN=C2c1ccc(C(C)(C)O)cc1Br [Example 96] | 18 nM | < 10 nM | – | – |
| COc1cc(C)c(C2=NNC(=O)O[C@]23CC[C@@H](C[C@H](C)NC(=O)N2CCn4c(nnc4C(F)(F)F)C2)CC3)cn1 [Example 259] | 1450 nM | 2500 nM | – | – |
| C[C@@H](CN1CCC2(CC1)OC(=O)NN=C2c1cc(C#N)ccc1Br)NC(=O)/C=C/C(=O)ON1C(=O)CCC1=O [Example 2-042] | 3020 nM | 383 nM | – | – |
| CNC(=O)C(=O)N[C@@H](C)C[C@]1(C#N)CC[C@@]2(CC1)OC(=O)NN=C2c1cc(OC)ncc1Br [Example 2-077] | 15 nM | < 10 nM | – | – |
| CNC(=O)C(=O)N[C@@H](C)CC1CCC2(CC1)OC(=O)NN=C2c1ccncc1Br (mixture of isomers) [Example 120] | 12 nM | 11 nM | – | – |
| Cc1cc(C(=O)NC[C@H](C)N2CCC3(CC2)OC(=O)NN=C3c2ccc(C#N)cc2Br)[nH]n1 [Example 335] | 126 nM | < 10 nM | – | – |
| Cc1cc(C(=O)N[C@@H](C)C[C@]2(F)CC[C@@]3(CC2)OC(=O)NN=C3c2cc(C#N)ccc2Br)[nH]n1 [Example 311] | 15 nM | < 10 nM | – | – |
| CNC(=O)C(=O)N[C@@H](C)CC1CC[C@]2(C[C@@H]1F)OC(=O)NN=C2c1ccc(F)cc1Br (some centres unmarked) [Example 285] | < 10 nM | < 10 nM | – | – |
| CNC(=O)C(=O)N[C@@H](C)C[C@H]1CC[C@]2(CC1)OC(=O)NN=C2c1cc(C(=O)N2CCC(F)(F)C2)ccc1Br [Example 2-056] | 17 nM | < 10 nM | – | – |
| Cc1cc(C(=O)N[C@@H](C)C[C@H]2CC[C@]3(CC2)OC(=O)NN=C3c2cc(C#N)ccc2Br)[nH]n1 [Example 272] | 15 nM | < 10 nM | – | – |
| CBC(=O)C(=O)N[C@@H](C)C[C@H]1CC[C@]2(CC1)OC(=O)NN=C2c1ccc(S(C)(=O)=O)cc1Cl [Example 51] | 33 nM | 16 nM | – | – |
| C[C@@H](C[C@H]1CC[C@]2(CC1)OC(=O)NN=C2c1cc(C#N)ccc1Br)NC(=O)C(=O)NC1CC1 [Example 292] | 23 nM | < 10 nM | – | – |
| C[C@@H](CN1CCC2(CC1)OC(=O)NN=C2c1cc(C#N)ccc1Br)NC(=O)C1COCCO1 (mixture of isomers) [Example 2-049] | 1740 nM | 1440 nM | – | – |
| COc1cc(C)c(C2=NNC(=O)O[C@]23CC[C@@H](C[C@H](C)NC(=O)NCc2ccccn2)CC3)cn1 [Example 261] | 168 nM | 313 nM | – | – |
